According to patent US8835429B2, “Pyrimidine compounds, their use as mTOR kinase and Pl3 kinase inhibitors, and their syntheses” (Wyeth LLC, priority 2009, dated 2014):
pIC50: −log10 of the molar value. Like-named read-outs stand apart in the source and are kept apart here.

Columns and labels:
[1] = tested on: human tumor xenograft models; conditions: cited from earlier work
hSMG-1 = hSMG-1 (Homo sapiens, UniProt Q96Q15); conditions: read-out: hSMG-1 kinase activity IC50; cited from earlier work
[2] = tested on: acute lymphoblastic leukemia; conditions: in vivo; cited from earlier work
PI3K-gamma = PI3K-gamma (Homo sapiens, UniProt P48736); assay: PI3K-gamma fluorescence polarization assay; format: biochemical; conditions: 20 μM PIP2, 25 μM ATP; read-out: PI3Kγ IC50
PI3K-gamma, sequence (P48736 whole entry, species assumed): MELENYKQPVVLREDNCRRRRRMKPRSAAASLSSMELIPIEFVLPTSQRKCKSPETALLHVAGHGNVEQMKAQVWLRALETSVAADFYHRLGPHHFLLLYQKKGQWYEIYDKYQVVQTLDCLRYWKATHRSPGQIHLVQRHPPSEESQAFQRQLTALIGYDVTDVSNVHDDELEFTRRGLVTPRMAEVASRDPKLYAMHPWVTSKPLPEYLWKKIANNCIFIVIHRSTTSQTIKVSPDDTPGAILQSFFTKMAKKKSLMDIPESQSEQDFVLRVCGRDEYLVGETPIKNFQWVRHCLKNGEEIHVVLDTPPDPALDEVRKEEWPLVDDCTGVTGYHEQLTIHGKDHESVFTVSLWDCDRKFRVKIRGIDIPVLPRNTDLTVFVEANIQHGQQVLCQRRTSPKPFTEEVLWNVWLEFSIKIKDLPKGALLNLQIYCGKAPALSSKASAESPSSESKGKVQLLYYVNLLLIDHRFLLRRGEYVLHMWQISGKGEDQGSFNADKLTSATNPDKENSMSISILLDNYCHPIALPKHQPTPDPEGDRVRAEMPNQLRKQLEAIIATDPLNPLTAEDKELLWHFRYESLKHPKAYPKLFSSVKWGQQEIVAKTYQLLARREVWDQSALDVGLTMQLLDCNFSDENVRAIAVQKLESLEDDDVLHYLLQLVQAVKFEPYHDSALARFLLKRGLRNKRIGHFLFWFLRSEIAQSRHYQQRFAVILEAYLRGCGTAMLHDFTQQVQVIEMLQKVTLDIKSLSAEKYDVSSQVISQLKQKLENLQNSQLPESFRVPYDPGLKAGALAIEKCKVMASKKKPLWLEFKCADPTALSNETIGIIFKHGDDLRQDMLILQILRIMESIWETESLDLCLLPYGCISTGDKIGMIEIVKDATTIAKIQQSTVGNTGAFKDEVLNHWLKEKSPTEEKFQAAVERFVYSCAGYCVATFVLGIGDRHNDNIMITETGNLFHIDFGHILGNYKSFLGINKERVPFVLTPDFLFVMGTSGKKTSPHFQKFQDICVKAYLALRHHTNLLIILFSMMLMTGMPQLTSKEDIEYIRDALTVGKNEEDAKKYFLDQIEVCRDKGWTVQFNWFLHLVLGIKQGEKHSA
Method in brief: (§1)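 PIP2 (diC8) and ATP substrate with PI3K in 20 mM HEPES pH 7.5, 2 mM MgCl2, 0.05% CHAPS, 0.01% βME; 1% DMSO final; 30–60 min reaction. Stopped with EDTA plus GST-GRP (70 nM) and TAMRA probe (10 nM); FP (mP) read after 30–90 min, with no-enzyme controls.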

MDA468 = assay: In vitro cell growth assay (MTS), MDA468; format: cell-based; conditions: 72 h, human breast line MDA468, three days after drug treatment, read-out: MDA IC50
LNCap = assay: In vitro cell growth assay (MTS), LNCap; format: cell-based; conditions: LNCaP, 72 h, human prostate line, three days after drug treatment
mTOR [3] = target: T1, mTOR (Homo sapiens, UniProt P42345); assay: mTOR enzyme assay (DELFIA, purified FLAG-TOR, His6-S6K substrate); format: biochemical; parameters: FLAG; conditions: 100 μM ATP, 2 hours
PI3K-alpha = PI3K-alpha (Homo sapiens, UniProt P42336); assay: PI3K-alpha fluorescence polarization assay; format: biochemical; conditions: 20 μM PIP2, 25 μM ATP; read-out: PI3Kα IC50
PI3K-alpha, sequence (P42336 whole entry, species assumed): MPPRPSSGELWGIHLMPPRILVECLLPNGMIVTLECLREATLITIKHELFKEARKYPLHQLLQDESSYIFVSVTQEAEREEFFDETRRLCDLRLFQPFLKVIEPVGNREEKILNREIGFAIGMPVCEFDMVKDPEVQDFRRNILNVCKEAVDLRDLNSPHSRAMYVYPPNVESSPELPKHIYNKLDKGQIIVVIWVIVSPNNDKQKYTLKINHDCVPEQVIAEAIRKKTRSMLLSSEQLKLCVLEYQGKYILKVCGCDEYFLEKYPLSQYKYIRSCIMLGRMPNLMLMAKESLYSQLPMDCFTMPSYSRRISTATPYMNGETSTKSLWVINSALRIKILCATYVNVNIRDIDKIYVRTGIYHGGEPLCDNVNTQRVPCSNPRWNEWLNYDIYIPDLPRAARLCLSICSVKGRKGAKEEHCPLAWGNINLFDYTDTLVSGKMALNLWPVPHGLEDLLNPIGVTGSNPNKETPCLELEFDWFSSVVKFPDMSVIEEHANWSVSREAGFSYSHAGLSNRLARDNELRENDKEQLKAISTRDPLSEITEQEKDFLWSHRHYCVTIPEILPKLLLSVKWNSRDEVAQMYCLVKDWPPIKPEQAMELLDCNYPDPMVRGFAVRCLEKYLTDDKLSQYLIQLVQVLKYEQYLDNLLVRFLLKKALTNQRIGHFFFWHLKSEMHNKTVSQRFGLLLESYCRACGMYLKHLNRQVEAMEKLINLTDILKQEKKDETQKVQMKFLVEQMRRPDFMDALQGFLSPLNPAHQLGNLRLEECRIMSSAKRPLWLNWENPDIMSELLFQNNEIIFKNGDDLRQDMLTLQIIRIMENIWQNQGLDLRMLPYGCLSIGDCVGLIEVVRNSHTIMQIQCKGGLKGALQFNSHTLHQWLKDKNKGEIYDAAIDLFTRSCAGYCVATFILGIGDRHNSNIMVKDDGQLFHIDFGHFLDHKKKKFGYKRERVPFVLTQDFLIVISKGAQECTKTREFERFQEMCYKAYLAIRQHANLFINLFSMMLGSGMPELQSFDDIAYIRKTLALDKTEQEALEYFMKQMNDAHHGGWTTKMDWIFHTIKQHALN
PI3K-alpha, sequence (P27986 whole entry partner, species assumed): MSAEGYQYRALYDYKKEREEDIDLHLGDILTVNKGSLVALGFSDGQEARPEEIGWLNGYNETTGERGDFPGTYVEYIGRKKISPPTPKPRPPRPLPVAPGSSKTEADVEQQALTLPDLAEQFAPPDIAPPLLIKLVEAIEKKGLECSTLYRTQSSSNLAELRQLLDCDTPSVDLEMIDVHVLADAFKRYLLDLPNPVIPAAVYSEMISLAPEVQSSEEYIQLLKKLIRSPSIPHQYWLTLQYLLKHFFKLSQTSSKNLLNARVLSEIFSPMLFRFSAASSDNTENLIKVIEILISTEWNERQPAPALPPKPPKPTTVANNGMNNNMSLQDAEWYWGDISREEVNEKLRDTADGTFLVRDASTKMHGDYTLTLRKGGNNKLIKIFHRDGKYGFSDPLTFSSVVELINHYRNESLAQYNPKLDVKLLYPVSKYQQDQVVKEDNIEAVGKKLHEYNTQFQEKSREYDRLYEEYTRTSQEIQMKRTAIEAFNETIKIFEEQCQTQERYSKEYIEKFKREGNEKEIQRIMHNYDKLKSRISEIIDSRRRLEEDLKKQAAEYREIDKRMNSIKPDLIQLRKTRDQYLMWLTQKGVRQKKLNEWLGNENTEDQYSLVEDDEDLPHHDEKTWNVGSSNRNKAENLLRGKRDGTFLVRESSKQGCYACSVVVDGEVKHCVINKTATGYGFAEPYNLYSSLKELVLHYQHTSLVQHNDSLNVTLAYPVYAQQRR
Method in brief: as §1

mTOR [4] = target: T1, mTOR; conditions: read-out: mTOR IC50; mTOR complexes (PI103), mTOR enzyme (ZSTK474); cited from earlier work

SMILES	pIC50 (PI3K-gamma)	pIC50 (MDA468)	pIC50 (LNCap)	pIC50 (mTOR [3])	pIC50 (PI3K-alpha)	also measured
Cn1c(=O)n(-c2ccc(C(C)(C)C#N)cc2)c2c3cc(-c4cnc5ccccc5c4)ccc3ncc21 [NVP-BEZ-235, 2-methyl-2-(4-(3-methyl-2-oxo-8-(quinolin-3-yl)-2,3-dihydro-1H-imidazo[4,5-c]quinolin-1-yl)phenyl)propanenitrile]						activity against human tumor models ([1]; PC-3 and U-87 xenografts): demonstrated activity
Oc1cccc(-c2nc(N3CCOCC3)c3oc4ncccc4c3n2)c1 [PI103, 3-(4-(4-morpholinyl)pyrido[3′,′:4,5]furo[3,2-d]pyrimidin-2-yl)phenol]						activity against human tumor models ([1]; I.P. dosing in mice, U87MG, PC3, MDA-MB-468, MDA-MB-435, HCT 116, SKOV3, IGROV-1): demonstrated activity
COC[C@H]1OC(=O)c2coc3c2[C@@]1(C)C1=C(C3=O)[C@@H]2CCC(=O)[C@@]2(C)C[C@H]1OC(C)=O [Wortmannin]						pIC50 (hSMG-1): ~7.22
CO[C@H]1C[C@@H]2CC[C@@H](C)[C@@](O)(O2)C(=O)C(=O)N2CCCC[C@H]2C(=O)O[C@H]([C@H](C)C[C@@H]2CC[C@@H](OC(=O)C(C)(CO)CO)[C@H](OC)C2)CC(=O)[C@H](C)/C=C(\C)[C@@H](O)[C@@H](OC)C(=O)[C@H](C)C[C@H](C)/C=C/C=C/C=C/1C [Torisel]						activity in NOS/SCID xenograft mouse model of acute lymphoblastic leukemia [2]: active
C[C@@H]1COCCN1c1cc(N2C3CCC2COC3)nc(-c2ccc(NC(=O)Nc3ccc(CN4CCN(C)CC4)cc3)cc2)n1 [1-(4-{4-[(3R)-3-methylmorpholin-4-yl]-6-(3-oxa-8-azabicyclo[3.2.1]oct-8-yl)pyrimidin-2-yl}phenyl)-3-{4-[(4-methylpiperazin-1-yl)methyl]phenyl}urea]	5.07	7.92	8.22	8.92	5.89	
C[C@@H]1CN(c2cc(N3C4CCC3COC4)nc(-c3ccc(NC(=O)Nc4ccncc4)cc3)n2)C[C@H](C)O1 [1-(4-{4-[(2R,6S)-2,6-dimethylmorpholin-4-yl]-6-(3-oxa-8-azabicyclo[3.2.1]oct-8-yl)pyrimidin-2-yl}phenyl)-3-pyridin-4-ylurea]	5.27	6.55	7.30	8.59	5.87	
CN(C)CCOc1ccc(NC(=O)Nc2ccc(-c3nc(NC4CCOCC4)cc(N4C5CCC4COC5)n3)cc2)cc1 [1-{4-[2-(dimethylamino)ethoxy]phenyl}-3-{4-[4-(3-oxa-8-azabicyclo[3.2.1]oct-8-yl)-6-(tetrahydro-2H-pyran-4-ylamino)pyrimidin-2-yl]phenyl}urea]	5.34	7.32	7.52	8.12	5.95	
C[C@@H]1CN(c2cc(N3C4CCC3COC4)nc(-c3ccc(NC(=O)Nc4ccc(N5CCN(C)CC5)nc4)cc3)n2)C[C@H](C)O1 [1-(4-{4-[(2R,6S)-2,6-dimethylmorpholin-4-yl]-6-(3-oxa-8-azabicyclo[3.2.1]oct-8-yl)pyrimidin-2-yl}phenyl)-3-[6-(4-methylpiperazin-1-yl)pyridin-3-yl]urea]	4.82	6.70	7.00	7.82	5.77	
FC(F)c1nc2ccccc2n1-c1nc(N2CCOCC2)nc(N2CCOCC2)n1 [ZSTK474, 2-(2-difluoromethylbenzoimidazol-1-yl)-4,6-dimorpholino-1,3,5-triazine]						tumor growth in mouse human xenograft cancer models ([1]; chronic oral administration, 400 mg/kg, A549, PC-3, WiDr): completely inhibited growth; pIC50 (mTOR [4]): < 5.00
O=C(Nc1ccc(-c2nc(N3C4CCC3COC4)cc(N3C4CCC3COC4)n2)cc1)Nc1cccnc1 [1-[4-(4,6-di-3-oxa-8-azabicyclo[3.2.1]oct-8-ylpyrimidin-2-yl)phenyl]-3-pyridin-3-ylurea]	5.35	8.30	9.10	9.24	5.95	
C[C@@H]1CN(c2cc(N3C4CCC3COC4)nc(-c3ccc(NC(=O)Nc4ccc(N5CCN(C)CC5)cc4)cc3)n2)C[C@H](C)O1 [1-(4-{4-[(2R,6S)-2,6-dimethylmorpholin-4-yl]-6-(3-oxa-8-azabicyclo[3.2.1]oct-8-yl)pyrimidin-2-yl}phenyl)-3-[4-(4-methylpiperazin-1-yl)phenyl]urea]	5.19	6.89	7.52	8.36	5.81	
